Reference: article PMC4575030 (PLoS ONE, 2015)

What was measured:
[1] = system: rat spinal nerve ligation model; test: Tactile allodynia following spinal nerve ligation (SNL); type: in vivo; conditions: 30 mg/kg, 120 min after dosing, day 21 after SNL; not statistically significant (p = 0.99)
Description: A decrease in tactile response threshold, using calibrated von Frey filaments (Stoelting Co., Wood Dale, IL), was used as a measure of tactile allodynia following spinal nerve ligation (SNL). Prior to surgery, each animal underwent baseline testing to determine suitability for the assay. Briefly, animals were placed on a raised platform with a grid meshed floor. The distance between the mesh was ¼”. Once acclimated, each animal received a series of trials according to the up-down method described by Dixon. Animals showing a response to less than 4 g were deemed already sensitive to the stimulus and were removed. A maximal fiber of 15 g was employed as a cut-off threshold. Surgery was then performed with a procedure slightly modified by that reported by Kim and Chung. Briefly, the left L5 spinal nerve was carefully isolated from the surrounding tissue. Using 5–0 silk suture, a tight ligature was placed around L5 nerve. Muscle and skin were then closed using 4–0 absorbable suture and wound clips. Animals were allowed to recover and were carefully monitored for seven days to ensure proper healing and ensure there was no mutilation of the affected limb. On day 21 post-surgery, animals were again tested to ensure the development of tactile allodynia. […] Animals were then randomized into groups and dosed with the test compound, gabapentin, or vehicle and assessed as stated above. […]

Aδ-fiber nociceptors = test: In vivo teased-fiber recording from tibial nerve after CFA, Aδ-fibers; parameters: species or system rat; conditions: i.v. 2.5 mg
Description: A total of 55 adult, male, Sprague–Dawley rats (Harlan, Indianapolis, IN) weighing 300–350 g were used for electrophysiology. To ensure that electrophysiology studies were performed on rats with mechanical hyperalgesia, behavioral measures of mechanical hyperalgesia were obtained before and at 24 h after administration of CFA (and just prior to the electrophysiological studies). Mechanical hyperalgesia was assessed by determining the frequency of paw withdrawal evoked by mechanical stimulation using a 26 g Semmes-Weinstein von Frey monofilament (Stoelting, Wood Dale, IL). Rats were placed on an elevated wire mesh platform under individual plastic cages and acclimated to the testing environment for 30 minutes prior to testing. The monofilament was applied to the mid-plantar surface of the hindpaw ten times for 1–2 s each with an inter-stimulus interval of approximately 5–10 s and the paw withdrawal frequency (percent) was determined. Baseline measures were determined for each rat for three consecutive days prior to injection of CFA. […]
Recordings were made from cutaneous afferent fibers of the left tibial nerve using a teased-fiber approach. […] Teased fibers were placed onto a tungsten wire electrode and action potentials were recorded extracellularly. […] Responses of individual fibers were analyzed off-line using the Spike2 data analysis program (Cambridge Electronic Design, Cambridge, UK). […]

naïve rats = test: Open field activity (basic movement); type: in vivo, rat; conditions: formalin-naïve rats
Description: Basic movement was measured using the Photobeam Activity System Open Field (San Diego Instruments, San Diego, CA) equipped with 48 infrared photocell emitters and detectors. Photobeams used to measure vertical movement were positioned 14 cm above the test chamber floor. Each testing chamber was made of Plexiglas (41 x 41 x 36 cm) and was devoid of any bedding. At the beginning of the test session, each animal was placed in a separate testing chamber and the room lights were turned off. Basic movement was measured for 30 minutes.

C-fiber nociceptors = test: In vivo teased-fiber recording from tibial nerve after CFA, C-fibers; parameters: species or system rat; conditions: for Heat response threshold of C-fiber nociceptors: n = 9
Description: A total of 55 adult, male, Sprague–Dawley rats (Harlan, Indianapolis, IN) weighing 300–350 g were used for electrophysiology. To ensure that electrophysiology studies were performed on rats with mechanical hyperalgesia, behavioral measures of mechanical hyperalgesia were obtained before and at 24 h after administration of CFA (and just prior to the electrophysiological studies). Mechanical hyperalgesia was assessed by determining the frequency of paw withdrawal evoked by mechanical stimulation using a 26 g Semmes-Weinstein von Frey monofilament (Stoelting, Wood Dale, IL). Rats were placed on an elevated wire mesh platform under individual plastic cages and acclimated to the testing environment for 30 minutes prior to testing. The monofilament was applied to the mid-plantar surface of the hindpaw ten times for 1–2 s each with an inter-stimulus interval of approximately 5–10 s and the paw withdrawal frequency (percent) was determined. Baseline measures were determined for each rat for three consecutive days prior to injection of CFA. Mechanical hyperalgesia was defined as an increase in the paw withdrawal frequency.
Rats were initially anesthetized by intramuscular injection of ketamine (100 mg/kg) and xylazine ([…]). […] Core body temperature was maintained at 37°C using a feedback-controlled heating pad (Harvard Apparatus, Holliston, MA, USA).
Recordings were made from cutaneous afferent fibers of the left tibial nerve using a teased-fiber approach. The tibial nerve was dissected from the surrounding tissue and the overlaying skin was sewn to a metal ring to form a pool that was filled with warm mineral oil. The tibial nerve was placed onto a mirror platform for fine dissection with sharpened fine forceps (Fine Science Tools, Foster City, CA, USA). Teased fibers were placed onto a tungsten wire electrode and action potentials were recorded extracellularly. […] Only fibers with clearly discriminated single action potentials were studied. Responses of individual fibers were analyzed off-line using the Spike2 data analysis program (Cambridge Electronic Design, Cambridge, UK).
Afferent fibers were found by their ongoing spontaneous activity and by mechanically stimulating the plantar surface of the hind paw with the experimenter's finger or von Frey monofilaments. Once a single fiber was identified that was excited by mild pinching but not light touch, its mechanical receptive field was marked on the skin using a felt-tipped pen.
Conduction velocity was determined by electrically stimulating the skin outside the fiber’s receptive field with pin electrodes (200 μs pulse width at 0.5 Hz) to electrically activate the fiber. The fiber was stimulated at 1.5 times its electrical threshold and the conduction latency was measured from the time of the electrical stimulus artifact to the evoked action potential. Conduction distance was determined by measuring the distance from the fiber's receptive field to the recording electrode. Conduction velocity (m/s) was calculated by dividing conduction distance by conduction latency. Fibers were classified as Aδ-fiber nociceptors if they had conduction velocities between 2.4–25.0 m/s and as C-fiber nociceptors if conduction velocity was < 2.4 m/s.
Nociceptors were classified functionally according to their responsiveness to mechanical and heat stimulation. Mechanical stimuli used to classify units included light brushing with the tip of a cotton swab, mildly pinching with a pair of forceps, and application of von Frey filaments. Mechanical response thresholds were determined using a series of von Frey monofilaments and defined as the weight (g) required to evoke at least one action potential when applied to the receptive field for 1–2 s. Heat stimuli were delivered using a feedback-controlled Peltier device (Yale Electronics, New Haven, CT) with a contact area of 1 cm^2. […]

[2] = Terminal plasma and brain concentrations after behavioral testing; type: in vivo, rat
[3] = system: rat formalin model of pain; test: Formalin test (formalin-induced flinching); type: in vivo; conditions: for Decrease in formalin flinching: phase 2 (10 to 40 min), percent of vehicle
Description: Formalin-induced flinching was measured using the Automated Nociception Analyzer (ANA) (University Anesthesia Research & Development Group, La Jolla, CA). Rats were habituated to the ANA testing chambers for at least 30 minutes prior to the formalin injection. At test time, each rat was removed from the testing chamber and gently wrapped in a towel. 50 μL of 2.5% formalin solution was injected into the dorsal surface of the left hind paw with a 30 gauge needle. A small metal band was then affixed to the plantar side of the injected paw with one drop of super glue. The animal was then unwrapped from the towel, placed back in the testing chamber, and flinching behavior was scored for 40 minutes by the ANA software. While minimized, non-painful paw movement from the natural activity of an alert animal could be erroneously binned by the automated recording system as a nociceptive behavior. These behaviors are not subtracted from the flinching total. […] Total flinching behavior was used as the endpoint of the assay.

[4] = 30 minutes after i.v. injection
[5] = 60 minutes after i.v. injection

CC(=O)Nc1cccc(Nc2ncnc(N3CCC(OCc4ccc(OC(F)(F)F)cc4)CC3)n2)c1C [Compound 52, N-(2-methyl-3-((4-(4-((4-(trifluoromethoxy)benzyl)oxy)-1-piperidinyl)-1,3,5-triazin-2-yl)amino)phenyl)acetamide]
Reversal of tactile allodynia compared to the vehicle group [1]: 15%
Mechanical response thresholds of Aδ-fiber nociceptors (Aδ-fiber nociceptors): Neither vehicle nor compound 52 altered
Rate of ongoing spontaneous activity of Aδ-fiber nociceptors (Aδ-fiber nociceptors): did not reduce the rate of ongoing spontaneous activity
Decrease in basic movement (naïve rats; 3 mg/kg p.o.): 3%
Decrease in basic movement (naïve rats; 10 mg/kg p.o., negative value = increase): 11%
Decrease in basic movement (naïve rats; 30 mg/kg p.o.): 54%
Mean cumulative number of action potentials evoked by all heat stimuli, C-fibers (C-fiber nociceptors; [4]): 19.2 ± 3.6
Mean number of action potentials evoked by a suprathreshold mechanical stimulus (250 mN), C-fibers (C-fiber nociceptors; [4]): 19.9 ± 5.4
Mechanical response threshold of C-fiber nociceptors (C-fiber nociceptors; [4]): 60.4 ± 9.8 mN
Heat response threshold of C-fiber nociceptors (C-fiber nociceptors; [4]): 47.0 °C
Number of action potentials evoked by heat stimuli, C-fibers (C-fiber nociceptors; 30 minutes after i.v. injection, 48°C and 50°C reduced): reduced the number of action potentials evoked by heat stimuli
Mean number of action potentials evoked by a suprathreshold mechanical stimulus (250 mN), C-fibers (C-fiber nociceptors; [5]): 11.6 ± 3.2
Mechanical response threshold of C-fiber nociceptors (C-fiber nociceptors; [5]): 60.1 ±9.1 mN
Mean cumulative number of action potentials evoked by all heat stimuli, C-fibers (C-fiber nociceptors; before injection): 39.2 ± 6.5
Mean number of action potentials evoked by a suprathreshold mechanical stimulus (250 mN), C-fibers (C-fiber nociceptors; before injection, n = 8): 28.9 ± 6.2
Heat response threshold of C-fiber nociceptors (C-fiber nociceptors; before injection): 45.0 °C
Mechanical response threshold of C-fiber nociceptors (C-fiber nociceptors; before injection, n = 11): 44.5 ± 7.5 mN
Time after beginning the injection at which the rate of ongoing spontaneous activity was significantly decreased (C-fiber nociceptors; i.v. 2.5 mg over 15 min, remained decreased until 26 minutes): ≤ 12 min
Spontaneous firing of C-fiber nociceptors, after compound (C-fiber nociceptors; one day after CFA, after i.v. 2.5 mg (approximately 8 mg/kg)): ~0.2 Hz
Spontaneous firing of C-fiber nociceptors, before compound (C-fiber nociceptors; one day after CFA, before i.v. injection): approximately 0.7 Hz
Kp ([2]; brain and plasma, rat, ratio of concentrations measured following the formalin test): 0.3
Effective [plasma] ([2]; mean terminal plasma concentration at the lowest effective dose in the rat formalin test): 1.93 µM
Decrease in formalin flinching ([3]; 3 mg/kg p.o.): 9%
Decrease in formalin flinching ([3]; 10 mg/kg p.o.): 22%
Decrease in formalin flinching ([3]; 30 mg/kg p.o.): 79%
Analgesic efficacy ([3]; rat formalin model, significant (p < 0.05) decrease in flinching at a dose without a reduction in open field movement that obviated the result): Yes
Reduction in formalin flinching, result in words ([3]; rat formalin test): statistically significant and plasma concentration-dependent reduction in formalin flinching
Behavioral analgesic efficacy in the formalin model, i.v. delivery ([3]; same formulation and i.v. route as electrophysiology, data not shown): equivalent to morphine
